Columns and labels:
[1] = tested on: CIRAR (Cirsium arvense, Canada thistle); assay: Post-emergence foliar-applied weed control in cereal crops, greenhouse (Example III); format: in vivo, Cirsium arvense (L.) Scop.
Method in brief: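 Greenhouse plants at the second or third true leaf stage (14 hour photoperiod, about 18/17 °C) were track-sprayed at 187 L/ha with Compound A SC, a second cereal herbicide, or their combinations, using 1.25% v/v crop oil concentrate. Injury was scored visually at 20-22 days against solvent-blank controls on a 0–100% scale. Expected mixture effects were calculated with Colby's equation.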

[2] = tested on: CYPRO (Cyperus rotundus, purple nutsedge); assay: In-water applied weed control, transplanted paddy rice, greenhouse (Example II); format: in vivo, Cyperus rotundus L.
Procedure: Weed seeds or nutlets of the desired test plant species were planted in puddled soil (mud) prepared by mixing a shredded, non-sterilized mineral soil (50.5 percent silt, 25.5 percent clay, and 24 percent sand, with a pH of about 7.6 and an organic matter content of about 2.9 percent) and water at a 1:1 volumetric ratio. The prepared mud was dispensed in 365 mL aliquots into 16-ounce (oz.) non-perforated plastic pots with a surface area of 86.59 square centimeters (cm^2) leaving a headspace of 3 centimeters (cm) in each pot. Rice seeds were planted in Sun Gro MetroMix® 306 planting mixture, which typically has a pH of 6.0 to 6.8 and an organic matter content of about 30 percent, in plastic plug trays. Seedlings at the second or third leaf stage of growth were transplanted into 860 mL of mud contained in 32-oz. non-perforated plastic pots with a surface area of 86.59 cm^2 4 days prior to herbicide application. The paddy was created by filling the headspace of the pots with 2.5 to 3 cm of water. When required to ensure good germination and healthy plants, a fungicide treatment and/or other chemical or physical treatment was applied. The plants were grown for 4-22 days in a greenhouse with an approximate 14 h photoperiod which was maintained at about 29′C during the day and 26° C. during the night. Nutrients were added as Osmocote® (19:6:12, N:P:K+minor nutrients) at 2 g per 16-oz. pot and 4 g per 32-oz. pot. Water was added on a regular basis to maintain the paddy flood, and supplemental lighting was provided with overhead metal halide 1000-Watt lamps as necessary. The plants were employed for testing when they reached the first through fourth true leaf stage.
Treatments consisted of the acid or esters of 4-amino-3-chloro-5-fluoro-6-(4-chloro-2-fluoro-3-methoxy-phenyl)pyridine-2-carboxylic acid (compound A) each formulated as an SC and various herbicidal components alone and in combination. Forms of compound A were applied on an acid equivalent basis.
Other herbicidal components were applied on an active ingredient basis and included acetolactate synthase (ALS)-inhibiting herbicides (sulfonylurea chemical class), azimsulfuron formulated as Gulliver®, bensulfuron-methyl formulated as Londax® 60DF, cyclosulfamuron (technical grade materail), ethoxysulfuron formulated as Sunrice® 15 WDG, flucetosulfuron formulated as Sukedachi® 1KG G, imazosulfuron formulated as Brazzos®, metsulfuron-methyl formulated as Lorate®, nicosulfuron formulated as Accent®, orthosulfamuron formulated as Strada® WG, propyrisulfuron formulated as Zeta One®, and rimsulfuron formulated as Matrix® WG.
Treatment requirements for each compound or herbicidal component were calculated based upon the rates being tested, the concentration of active ingredient or acid equivalent in the formulation, an application volume of 2 mL per component per pot, and an application area of 86.59 cm^2 per pot.
For formulated compounds, a measured amount was placed in an individual 100 or 200 mL glass vial and was dissolved in a volume of 1.25% (v/v) Agri-Dex® crop oil concentrate to obtain application solutions.
For technical grade compounds, a weighed amount was placed in an individual 100 to 200 mL glass vial and was dissolved in a volume of acetone to obtain concentrated stock solutions. […] The concentrated stock solutions obtained were diluted with an equivalent volume of an aqueous mixture containing 2.5% (v/v) crop oil concentrate so that the final application solutions contained 1.25% (v/v) crop oil concentrate.
Applications were made by injecting with a pipetter appropriate amounts of the application solutions, individually and sequentially, into the aqueous layer of the paddy. Control plants were treated in the same manner with the solvent blank. Applications were made so that all treated plant material received the same concentrations of acetone and crop oil concentrate. […]

COC(=O)c1ccccc1S(=O)(=O)NC(=O)Nc1nc(C)nc(OC)n1 [Metsulfuron-methyl, methyl 2-[[[[(4-methoxy-6-methyl-1,3,5-triazin-2-yl)amino]carbonyl]amino]sulfonyl]benzoate, reference compound]
pest or weed control at 1.1 g/ha ([1]; Cirsium arvense, post-emergence, Table 56, foliar-applied, after 20-22 days, 1.1 gai/ha alone, read-out: Weed Control CIRAR Obs): 65%

COc1c(Cl)ccc(-c2nc(C(=O)OCc3ccccc3)c(Cl)c(N)c2F)c1F [Compound A Benzyl Ester]
Visual Weed Control (%) - 20 DAA CYPRO Obs ([2]; Table 50, 4.38 gae/ha alone): 50%
Visual Weed Control (%) - 20 DAA CYPRO Obs ([2]; Table 50, 8.75 gae/ha alone): 0%
Visual Weed Control (%) - 20 DAA CYPRO Obs ([2]; Table 50, 17.5 gae/ha alone): 90%
pest or weed control at 8.75 g/ha ([1]; Cirsium arvense, post-emergence, read-out: Weed Control CIRAR Obs): 40%
Weed Control CIRAR Obs ([1]; Table 53, foliar-applied, after 20-22 days, 8.75 gai/ha alone): 40%
Weed Control CIRAR Obs ([1]; Table 54, foliar-applied, after 20-22 days, 8.75 gai/ha alone): 40%
Weed Control CIRAR Obs ([1]; Table 55, foliar-applied, after 20-22 days, 8.75 gai/ha alone): 40%
Weed Control CIRAR Obs ([1]; Table 56, foliar-applied, after 20-22 days, 8.75 gai/ha alone): 40%
Weed Control CIRAR Obs ([1]; Table 57, foliar-applied, after 20-22 days, 8.75 gai/ha Compound A Benzyl Ester alone): 40%
Weed Control CIRAR Obs ([1]; Table 58 (cereal), foliar-applied, after 20-22 days, 8.75 gai/ha alone): 40%
Weed Control CIRAR Obs ([1]; Table 59 (cereal), foliar-applied, after 20-22 days, 8.75 gai/ha alone): 40%

COc1c(Cl)ccc(-c2nc(C(=O)O)c(Cl)c(N)c2F)c1F [Compound A Acid, 4-amino-3-chloro-5-fluoro-6-(4-chloro-2-fluoro-3-methoxy-phenyl)pyridine-2-carboxylic acid]
Visual Weed Control (%) - 20 DAA CYPRO Obs ([2]; Table 43, 10.6 gae/ha alone): 10%
Visual Weed Control (%) - 20 DAA CYPRO Obs ([2]; Table 43, 21.2 gae/ha alone): 20%
Visual Weed Control (%) - 20 DAA CYPRO Obs ([2]; Table 49, 10.6 gae/ha alone): 10%
Visual Weed Control (%) - 20 DAA CYPRO Obs ([2]; Table 49, 21.2 gae/ha alone): 20%
Visual Weed Control (%) - 20 DAA CYPRO Obs ([2]; Table 49, 42.4 gae/ha alone): 95%
